Data from paper PMC11114221, “A pattern recognition artificial olfactory system based on human olfactory receptors and organic synaptic devices” (Science Advances, 2024).

Columns and labels:
Assay in all cases: tryptophan fluorescence quenching
Type in all cases: binding
Conditions in all cases: receptor nanodiscs 500 nM; 20 mM Hepes, 100 mM NaCl, pH 8.0
hOR51E1 = target: T1, hOR51E1 (Homo sapiens, UniProt Q8TCB6)
T1 construct: gene OR51E1; E. coli SuptoxR (Rosetta 2 (DE3) with RraA); ~38 kDa
T1 sequence (Q8TCB6 1-318): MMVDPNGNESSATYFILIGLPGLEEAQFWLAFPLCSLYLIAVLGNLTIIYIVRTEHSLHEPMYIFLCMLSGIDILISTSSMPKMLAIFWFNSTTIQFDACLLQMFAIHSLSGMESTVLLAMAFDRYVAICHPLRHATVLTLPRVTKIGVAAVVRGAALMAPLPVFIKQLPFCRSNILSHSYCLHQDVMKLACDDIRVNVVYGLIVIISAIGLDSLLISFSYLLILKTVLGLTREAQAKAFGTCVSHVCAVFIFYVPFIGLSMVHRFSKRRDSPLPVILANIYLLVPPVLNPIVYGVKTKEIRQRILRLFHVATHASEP

hOR52D1 = target: T2, hOR52D1 (Homo sapiens, UniProt Q9H346)
T2 construct: gene OR52D1; E. coli SuptoxR (Rosetta 2 (DE3) with RraA); ~38 kDa
T2 sequence (Q9H346 1-318): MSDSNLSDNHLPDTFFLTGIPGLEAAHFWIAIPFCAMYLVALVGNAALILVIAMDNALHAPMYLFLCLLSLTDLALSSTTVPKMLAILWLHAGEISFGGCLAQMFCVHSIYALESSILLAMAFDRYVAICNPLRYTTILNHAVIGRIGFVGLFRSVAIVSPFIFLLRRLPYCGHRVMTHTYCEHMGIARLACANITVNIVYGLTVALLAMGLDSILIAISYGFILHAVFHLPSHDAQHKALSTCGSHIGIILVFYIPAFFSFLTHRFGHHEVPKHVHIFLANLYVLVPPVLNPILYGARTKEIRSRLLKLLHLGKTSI

hOR51E2 = target: T3, hOR51E2 (Homo sapiens, UniProt Q9H255)
T3 construct: gene OR51E2; E. coli SuptoxR (Rosetta 2 (DE3) with RraA); ~38 kDa
T3 sequence (Q9H255 1-320): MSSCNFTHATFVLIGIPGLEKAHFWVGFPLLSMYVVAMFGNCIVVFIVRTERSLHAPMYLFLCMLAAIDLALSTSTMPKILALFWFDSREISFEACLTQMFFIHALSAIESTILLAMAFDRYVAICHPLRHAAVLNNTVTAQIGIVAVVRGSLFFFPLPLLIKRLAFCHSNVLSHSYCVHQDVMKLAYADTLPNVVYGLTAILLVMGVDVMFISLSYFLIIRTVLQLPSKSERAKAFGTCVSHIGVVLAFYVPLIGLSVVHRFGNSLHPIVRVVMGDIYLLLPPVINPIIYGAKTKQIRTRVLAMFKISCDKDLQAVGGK

Structure (SMILES) | ∆F/F0 (%) (hOR51E1) | ∆F/F0 (%) (hOR52D1) | ∆F/F0 (%) (hOR51E2)
CCCC(=O)O [BA, butyric acid] | each hOR ND displayed distinct binding affinities toward the SCFAs | each hOR ND displayed distinct binding affinities toward the SCFAs | each hOR ND displayed distinct binding affinities toward the SCFAs
CCCCCC(=O)O [HA, hexanoic acid] | each hOR ND displayed distinct binding affinities toward the SCFAs | each hOR ND displayed distinct binding affinities toward the SCFAs | each hOR ND displayed distinct binding affinities toward the SCFAs
CCC(=O)O [PA, propionic acid] | each hOR ND displayed distinct binding affinities toward the SCFAs | each hOR ND displayed distinct binding affinities toward the SCFAs | each hOR ND displayed distinct binding affinities toward the SCFAs
CCCCC(=O)O [VA, valeric acid] | each hOR ND displayed distinct binding affinities toward the SCFAs | each hOR ND displayed distinct binding affinities toward the SCFAs | each hOR ND displayed distinct binding affinities toward the SCFAs
